Data taken from US20240401058A1, “METHOD OF REGULATING PULMONARY ARTERY VASCULAR REMODELING” (THE TRUSTEES OF INDIANA UNIVERSITY, priority 2021, published 2024).

How the values were obtained:
Type in all cases: cell-based, human
Ac-H3K9 = assay: CUT&RUN with acetylated H3K9 antibody in hPASMC; conditions: for EMAP II promoted hyperacetylation of H3K9 (Ac-H3K9 peaks): EMAP II 2-3 hours
Method: Cleavage Under Targets and Release Using Nuclease (CUT&RUN) was performed with hPASMC using CUTANA® protocol v1.6. For each condition, nuclei from two biological replicates were extracted by incubating cells on ice for 10 min in Nuclei Extraction buffer (NE: 20 mM HEPES-KOH, pH 7.9; 10 mM KCl; 0.1% Triton X-100; 20% Glycerol; 0.5 mM spermidine; 1× complete protease inhibitor (GoldBio), collecting by centrifugation (600 g, 3 min, 4° C.), discarding the supernatant, and resuspending at [100 μl/500K nuclei] sample in NE buffer. For each target 500K nuclei were immobilized onto Concanavalin-A beads (EpiCypher #21-1401) and incubated overnight (4° C. with gentle rocking) with 0.5 μg of antibody IgG (negative control), trimethylated H3K4 (positive control), Ac-H3K9 (all validated to SNAP-ChIP nucleosome standards). CUT&RUN enriched DNA was purified and used to prepare sequencing libraries with the Ultra II DNA Library Prep kit (New England Biolabs #E7645S). Libraries were sequenced on the Illumina NextSeq 550, obtaining ˜8 million paired end reads on average. The CUT&RUN paired reads were used for quality control using FASTQ Groomer (Galaxy Version 1.1.5) and paired ends were aligned against the GRCh38/hg38 reference genome assembly for human using bowtie2 (Galaxy Version 2.4.2+galaxy0). After quality-based filtering with SAM or BAM tools (Galaxy Version 1.8+galaxy1), MACS2 (Galaxy Version 2.1.1.20160309.6) was applied for CUT&RUN peak calling of Ac-H3K9 against the IgG control with genome size of 2.7e9 and then, DiffBind (Galaxy Version 2.10.0) was used to analyze the differential binding sites between the control and rEMAP II treated samples.

[1] = system: pSPHK2 in nuclear fractions of hPASMC; assay: Nuclear pSPHK2 in hPASMC after EMAP II treatment (immunoblot of nuclear fractions, immunofluorescence); conditions: inhibitor pretreatment, EMAP II 150 minutes
Method: Primary human pulmonary artery smooth muscle cells (hPASMC) purchased from Lonza (Walkersville, MD) were cultured in complete growth medium containing smooth muscle growth media-2 (SmGM-2) with 10% FBS and growth factors provided as a kit by the supplier (Lonza, (Walkersville, MD). Cells were cultured in a humidified atmosphere with 5% CO2 at 37° C. For all studies, passages 5-10 were used for hPASMCs. For treatment studies, subconfluent cells plated in multi-well plates were serum starved and if required, pretreated with inhibitors before stimulation with 2 μg/mL recombinant EMAP II. All the controls were handled similar to the test samples. Cells were treated with EMAP II or vehicle, cells were rinsed at the desired time point, and lysis buffer was applied.
After appropriate treatments, protein lysates were prepared by using RIPA buffer (for cells) or home-made lysis buffer (tissue) supplemented with phosphatase and protease inhibitors (Thermo Fisher Scientific). Alpha-tubulin or Vinculin was used as a loading control. For nuclear and cytoplasmic fractionation, NE-PER kit from Thermo Fischer Scientific was used. Western blots were performed according to standard methods and quantified using densitometry using Image Studio Lite software from LI-COR Biosciences. […]

iPAH: PASMCs = assay: Cell proliferation rate of iPAH: PASMCs; conditions: iSPHK2 pretreatment 24 hours
Method: All studies involving human lung tissues and cells were conducted according to the Institutional review board of Indiana University School of Medicine. Deidentified archived tissues and pulmonary arterial smooth muscle cells (PASMCs) obtained from the Pulmonary Hypertension Breakthrough Initiative (PHBI) biorepository from patients with Idiopathic Pulmonary Arterial Hypertension (iPAH: Group 1 PH) at time of lung transplantation and patients without PH that were failed donor lungs (FDL).
Primary human PASMCs (hPASMCs), pulmonary microvascular endothelial cells (hPMVECs) purchased from Lonza (Walkersville, MD) and iPAH: PASMCs were cultured in complete growth medium or conditioned media in a humidified atmosphere or 1% O2 with 5% CO2 at 37° C. For all studies, passages 5-10 were used for hPASMCs and hPMVECs.

HDAC = HDAC assay in nuclear fractions of hPASMC; conditions: inhibitor pretreatment, EMAP II 150 minutes
Method: Equal number of hPASMC cells (15000/[…]) were plated and serum starved for overnight. Cells were pretreated with inhibitors and stimulated for the desired time points and collected. Cells were pelleted out and washed with PBS. After the extraction of nuclear proteins, protein concentration was measured. HDAC levels were measured using HDAC activity flurometric kit (Abcam, ab156064) following manufacturer's instructions. Free unbound HDAC levels were normalized against protein levels.

nuclear S1P = assay: ELISA for S1P quantification in nuclear fractions of hPASMC; conditions: inhibitor pretreatment, EMAP II 15 or 150 minutes
Method: Equal number of hPASMC cells (15000/[…]) were plated and serum starved for overnight. Cells were pretreated with inhibitors if needed and stimulated for in a series of time points and collected the cells. Cells were pelleted out and washed with PBS. After the extraction of nuclear proteins, protein concentration was measured. S1P levels were measured using S1P ELISA kit (MyBioSource, MBS069092) following manufacturer's instructions. S1P levels were normalized against protein levels.

hPASMC = assay: Cell proliferation rate in hPASMC following EMAP II treatment; conditions: inhibitor pretreatment, EMAP II 24 hours
Method: Cells were treated with EMAP II or vehicle, cells were rinsed at the desired time point, and lysis buffer was applied.

| SMILES | differentially acetylated sites by EMAPII that are altered by iSPHK2 pretreatment (Ac-H3K9) [sites] | differentially acetylated upstream sites by EMAPII that are also altered by iSPHK2 pretreatment (Ac-H3K9) [sites] | EMAP II promoted hyperacetylation of H3K9 (Ac-H3K9 peaks) (Ac-H3K9; inhibitor pretreatment) | EMAP II promoted hyperacetylation of H3K9 (Ac-H3K9 peaks) (Ac-H3K9; inhibitor pretreatment, listed as iSPHK2) | level of Ac-H3K9 regions in KLF4 (Ac-H3K9; inhibitor pretreatment, EMAPII treated) | EMAP II induced nuclear activation of SPHK2 (nuclear pSPHK2/lamin B) [1] | EMAP II induced nuclear activation of SPHK2 (nuclear pSPHK2/lamin B) ([1]; listed as iSPHK2) | proliferation rate (iPAH: PASMCs) | HDAC activity (HDAC) | HDAC activity (HDAC; listed as iSPHK2) | HDAC activity (HDAC; listed as iSPHK2 inhibitor) | EMAP II generated nuclear S1P (nuclear S1P) | EMAP II generated nuclear S1P (nuclear S1P; listed as iSPHK2) | EMAP II mediated cell proliferation (hPASMC) | EMAP II mediated cell proliferation (hPASMC; listed as iSPHK2) |
| --- | --- | --- | --- | --- | --- | --- | --- | --- | --- | --- | --- | --- | --- | --- | --- |
| O=C(NCc1ccncc1)C12CC3CC(C1)CC(c1ccc(Cl)cc1)(C3)C2 [SPHK2 inhibitor, ABC294640] | 5554 | 755 | partially diminished EMAP II promoted hyperacetylation of H3K9 | partially diminished EMAPII promoted hyperacetylation of H3K9 | rescued the level of Ac-H3K9 regions in EMAPII treated cells | ablated the EMAP II induced nuclear activation of SPHK2 | ablated the EMAPII induced nuclear activation of SPHK2 | restoring regular proliferation rates in iPAH: PASMCs | rescued decreased HDAC activity | rescued the loss of HDAC activity | rescued the loss of HDAC activity | suppressed EMAP II generated nuclear S1P expression | suppressed EMAPII generated nuclear S1P expression | blocked EMAPII mediated proliferation | rescued |
| Cc1cc(CS(=O)(=O)c2ccccc2)cc(OCc2ccc(CN3CCCC3CO)cc2)c1 (stereo not shown) [SPHK1 inhibitor, PF643] |  |  |  |  |  |  |  |  |  |  |  |  |  | blocked EMAPII mediated proliferation |  |
